Data from ChEMBL document CHEMBL1141823, “Malayenolides A-D, novel diterpenes from the indonesian sea pen veretillum malayense” (J Nat Prod, 1999).
≈ marks a conversion by molar mass, not a printed value.

Experiment: Toxicity against brine shrimp
Assay type: organism-based
Conditions: artemia, in vivo
`CC(=O)O[C@H]1CC=C(C)[C@@H]2CC3=C(C)C(=O)O[C@H]3/C=C(/C)CC[C@H](OC(=O)c3ccccc3)[C@@]12C` [MALAYENOLIDE A] showed an LC50 of 100 µg/mL (≈ 209 µM).
For `CC(=O)O[C@H]1C[C@@H]2O[C@]2(C)[C@@H]2CC3=C(C)C(=O)O[C@H]3/C=C(/C)CC[C@H](OC(=O)c3ccccc3)[C@@]12C` [MALAYENOLIDE B], the LC50 was < 2 µg/mL.
`CC(=O)O[C@H]1CC=C(C)[C@@H]2CC3=C(C)C(=O)O[C@H]3/C=C(/C)CC[C@H](OC(=O)C=C(C)C)[C@@]12C` [MALAYENOLIDE C] showed an LC50 of 20 µg/mL (≈ 43.8 µM).
`CC(=O)O[C@H]1C[C@@H]2O[C@]2(C)[C@@H]2CC3=C(C)C(=O)O[C@H]3/C=C(/C)CC[C@H](OC(=O)C=C(C)C)[C@@]12C` [MALAYENOLIDE D] showed an LC50 of 20 µg/mL (≈ 42.3 µM).
